What was measured:
wheat = assay: Test B pre/postemergence wheat; assay type: in vivo, Triticum aestivum
Procedure, shortened: (§1)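 Response is a visual 0-to-10 score relative to untreated plants, where 0 means no effect and 10 means complete control, taken twelve to sixteen days after application. Treatments went onto soil at planting and onto foliage of 1- to 4-leaf plants, using a surfactant-containing non-phytotoxic solvent.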

wild oat = assay: Test B pre/postemergence wild oat; assay type: in vivo, Avena fatua
Procedure, shortened: as §1

duck salad = assay: Test B flood test duck salad; assay type: in vivo, Heteranthera limosa
Procedure, shortened: (§2)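 Flood test on plants grown to the 2-leaf stage; treated plants kept in greenhouse twelve to sixteen days, then visually rated against controls on a 0 (no effect) to 10 (complete control) scale.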

bedstraw = assay: Test B pre/postemergence bedstraw; assay type: in vivo, Galium aparine
Procedure, shortened: as §1

corn = assay: Test B pre/postemergence corn; assay type: in vivo, Zea mays
Procedure, shortened: as §1

velvetleaf = assay: Test B pre/postemergence velvetleaf; assay type: in vivo, Abutilon theophrasti
Procedure, shortened: as §1

soybean = assay: Test B pre/postemergence soybean; assay type: in vivo, Glycine max
Procedure, shortened: as §1

giant foxtail = assay: Test B pre/postemergence giant foxtail; assay type: in vivo, Setaria faberii
Procedure, shortened: as §1

morningglory = assay: Test B pre/postemergence morningglory; assay type: in vivo, Ipomoea hederacea
Procedure, shortened: as §1

surinam grass = assay: Test B pre/postemergence surinam grass; assay type: in vivo, Brachiaria decumbens
Procedure, shortened: as §1

purple nutsedge = assay: Test B pre/postemergence purple nutsedge; assay type: in vivo, Cyperus rotundus
Procedure, shortened: as §1

blackgrass = assay: Test B pre/postemergence blackgrass; assay type: in vivo, Alopecurus myosuroides
Procedure, shortened: as §1

crabgrass = assay: Test B pre/postemergence crabgrass; assay type: in vivo, Digitaria sanguinalis
Procedure, shortened: as §1

bamyardgrass = assay: Test B flood test barnyardgrass; assay type: in vivo, Echinochloa crus-galli
Procedure, shortened: as §2

smallflower flatsedge = assay: Test B flood test smallflower flatsedge; assay type: in vivo, Cyperus difformis
Procedure, shortened: as §2

cocklebur = assay: Test B pre/postemergence cocklebur; assay type: in vivo, Xanthium strumarium
Procedure, shortened: as §1

rice = assay: Test B flood test rice; assay type: in vivo, Oryza sativa
Procedure, shortened: as §2

[1] = Postemergence, Rate 62 g/ha, scale 0 to 10, 0 is no effect, 10 is complete control
[2] = Postemergence, Rate 250 g/ha, scale 0 to 10, 0 no effect, 10 complete control
[3] = Preemergence, Rate 62 g/ha, scale 0 to 10 (0 no effect, 10 complete control)
[4] = Preemergence, Rate 125 g/ha, scale 0 to 10 (0 no effect, 10 complete control)
[5] = Preemergence, Rate 250 g/ha, scale of 0 to 10 where 0 is no effect and 10 is complete control
[6] = Preemergence, Rate 500 g/ha, scale 0 (no effect) to 10 (complete control)
[7] = Rate 125 g/ha, Postemergence, scale 0 to 10, 0 no effect, 10 complete control
[8] = Rate 500 g/ha, Postemergence, scale 0 to 10, 0 no effect, 10 complete control
[9] = Rate 125 g/ha, Postemergence section (flood test species), scale 0 to 10, 0 no effect, 10 complete control
[10] = Rate 500 g/ha, listed under Postemergence (flood test species), scale 0 to 10, 0 no effect, 10 complete control
[11] = flood test, listed under Postemergence, Rate 250 g/ha, scale 0 to 10, 0 no effect, 10 complete control

CC(C)N(C(=O)n1oc(=O)n(Cc2cccs2)c1=O)c1ccc(F)cc1 [Compound 80]
Wheat plant response rating (wheat; [1]): 0
Wheat plant response rating (wheat; [2]): 0
Wheat plant response rating (wheat; [3]): 0
Plant response rating, Wheat (wheat; [4]): 0
Plant response rating, Wheat (wheat; [5]): 0
Wheat plant response rating (wheat; [6]): 0
Wheat plant response rating (wheat; [7]): 0
Wheat plant response rating (wheat; [8]): 0
Wild oats plant response rating (wild oat; [1]): 0
Wild oats plant response rating (wild oat; [2]): 0
Wild oats plant response rating (wild oat; [3]): 0
Plant response rating, Wild oats (wild oat; [4]): 2
Plant response rating, Wild oats (wild oat; [5]): 3
Wild oats plant response rating (wild oat; [6]): 5
Wild oats plant response rating (wild oat; [7]): 0
Wild oats plant response rating (wild oat; [8]): 0
Ducksalad plant response rating (duck salad; [1]): 0
Ducksalad plant response rating (duck salad; [9]): 0
Ducksalad plant response rating (duck salad; [10]): 2
Ducksalad plant response rating (duck salad; [11]): 0
Bedstraw plant response rating (bedstraw; [1]): 0
Bedstraw plant response rating (bedstraw; [2]): 0
Bedstraw plant response rating (bedstraw; [3]): 0
Plant response rating, Bedstraw (bedstraw; [4]): 0
Plant response rating, Bedstraw (bedstraw; [5]): 0
Bedstraw plant response rating (bedstraw; [6]): 0
Bedstraw plant response rating (bedstraw; [7]): 0
Bedstraw plant response rating (bedstraw; [8]): 6
Corn plant response rating (corn; [1]): 0
Corn plant response rating (corn; [2]): 0
Corn plant response rating (corn; [3]): 0
Plant response rating, Corn (corn; [4]): 0
Plant response rating, Corn (corn; [5]): 0
Corn plant response rating (corn; [6]): 0
Corn plant response rating (corn; [7]): 0
Corn plant response rating (corn; [8]): 0
Velvetleaf plant response rating (velvetleaf; [1]): 0
Velvetleaf plant response rating (velvetleaf; [2]): 0
Velvetleaf plant response rating (velvetleaf; [3]): 0
Plant response rating, Velvetleaf (velvetleaf; [4]): 0
Plant response rating, Velvetleaf (velvetleaf; [5]): 2
Velvetleaf plant response rating (velvetleaf; [6]): 3
Velvetleaf plant response rating (velvetleaf; [7]): 0
Velvetleaf plant response rating (velvetleaf; [8]): 0
Soybean plant response rating (soybean; [1]): 0
Soybean plant response rating (soybean; [2]): 1
Soybean plant response rating (soybean; [3]): 0
Plant response rating, Soybean (soybean; [4]): 0
Plant response rating, Soybean (soybean; [5]): 0
Soybean plant response rating (soybean; [6]): 0
Soybean plant response rating (soybean; [7]): 1
Soybean plant response rating (soybean; [8]): 2
Giant foxtail plant response rating (giant foxtail; [1]): 0
Giant foxtail plant response rating (giant foxtail; [2]): 3
Giant foxtail plant response rating (giant foxtail; [3]): 6
Plant response rating, Giant foxtail (giant foxtail; [4]): 8
Plant response rating, Giant foxtail (giant foxtail; [5]): 8
Giant foxtail plant response rating (giant foxtail; [6]): 9
Giant foxtail plant response rating (giant foxtail; [7]): 2
Giant foxtail plant response rating (giant foxtail; [8]): 7
Morningglory plant response rating (morningglory; [1]): 7
Morningglory plant response rating (morningglory; [2]): 10
Morningglory plant response rating (morningglory; [3]): 0
Plant response rating, Morningglory (morningglory; [4]): 0
Plant response rating, Morningglory (morningglory; [5]): 0
Morningglory plant response rating (morningglory; [6]): 0
Morningglory plant response rating (morningglory; [7]): 8
Morningglory plant response rating (morningglory; [8]): 10
B. signalgrass plant response rating (surinam grass; [1]): 0
B. signalgrass plant response rating (surinam grass; [2]): 0
B. signalgrass plant response rating (surinam grass; [3]): 0
Plant response rating, B. signalgrass (surinam grass; [4]): 0
Plant response rating, B. signalgrass (surinam grass; [5]): 0
B. signalgrass plant response rating (surinam grass; [6]): 4
B. signalgrass plant response rating (surinam grass; [7]): 0
B. signalgrass plant response rating (surinam grass; Rate 500 g/ha, Postemergence, scale of 0 to 10 where 0 is no effect and 10 is complete control): 0
Nutsedge plant response rating (purple nutsedge; [1]): 0
Nutsedge plant response rating (purple nutsedge; [2]): 0
Nutsedge plant response rating (purple nutsedge; [3]): 0
Plant response rating, Nutsedge (purple nutsedge; [4]): 0
Plant response rating, Nutsedge (purple nutsedge; [5]): 0
Nutsedge plant response rating (purple nutsedge; [6]): 0
Nutsedge plant response rating (purple nutsedge; [7]): 0
Nutsedge plant response rating (purple nutsedge; [8]): 0
Blackgrass plant response rating (blackgrass; [1]): 2
Blackgrass plant response rating (blackgrass; [2]): 3
Blackgrass plant response rating (blackgrass; [3]): 0
Plant response rating, Blackgrass (blackgrass; [4]): 2
Plant response rating, Blackgrass (blackgrass; [5]): 4
Blackgrass plant response rating (blackgrass; [6]): 6
Blackgrass plant response rating (blackgrass; [7]): 2
Blackgrass plant response rating (blackgrass; [8]): 5
Crabgrass plant response rating (crabgrass; [1]): 2
Crabgrass plant response rating (crabgrass; [2]): 9
Crabgrass plant response rating (crabgrass; [3]): 3
Plant response rating, Crabgrass (crabgrass; [4]): 3
Plant response rating, Crabgrass (crabgrass; [5]): 10
Crabgrass plant response rating (crabgrass; [6]): 10
Crabgrass plant response rating (crabgrass; [7]): 9
Crabgrass plant response rating (crabgrass; [8]): 9
Barnyardgrass plant response rating (bamyardgrass; [1]): 0
Barnyardgrass plant response rating (bamyardgrass; [9]): 3
Barnyardgrass plant response rating (bamyardgrass; [10]): 9
Barnyardgrass plant response rating (bamyardgrass; [11]): 8
S. Flatsedge plant response rating (smallflower flatsedge; [1]): 0
S. Flatsedge plant response rating (smallflower flatsedge; [9]): 0
S. Flatsedge plant response rating (smallflower flatsedge; [10]): 3
S. Flatsedge plant response rating (smallflower flatsedge; [11]): 3
Cocklebur plant response rating (cocklebur; [1]): 0
Cocklebur plant response rating (cocklebur; [2]): 0
Cocklebur plant response rating (cocklebur; [3]): 0
Plant response rating, Cocklebur (cocklebur; [4]): 0
Plant response rating, Cocklebur (cocklebur; [5]): 0
Cocklebur plant response rating (cocklebur; [6]): 0
Cocklebur plant response rating (cocklebur; [7]): 0
Cocklebur plant response rating (cocklebur; [8]): 1
Rice plant response rating (rice; [1]): 0
Rice plant response rating (rice; [9]): 0
Rice plant response rating (rice; [10]): 2
Rice plant response rating (rice; [11]): 0
